Measured values taken from patent publication US9469650B2, “Melampomagnolide B derivatives” (BOARD OF TRUSTEES OF THE UNIVERSITY OF ARKANSAS, priority 2013, dated 2016).
Like-named read-outs stand apart in the source and are kept apart here.

Tests used:
K-562 = assay: panel of 60 human tumor cell lines, growth inhibition (Leukemia); settings: for GI50 / CC50: Homo sapiens; for GI50: K562; for CC50: K562, read-out: LC50; for Percent Growth / TGI: K-562; for TGI: NCI five dose
M14 = assay: panel of 60 human tumor cell lines, growth inhibition (Melanoma); settings: Homo sapiens; for GI50: M14; for CC50: M14, read-out: LC50; for IC (TGI): M14, read-out: TGI
SK-MEL-2 = assay: as above; settings: Homo sapiens; for GI50: SK-MEL-2; for CC50: SK-MEL-2, read-out: LC50; for IC (TGI): SK-MEL-2, read-out: TGI
UACC-62 = assay: as above; settings: Homo sapiens; for GI50: UACC-62; for CC50: UACC-62, read-out: LC50; for IC (TGI): UACC-62, read-out: TGI
SNB-75 = assay: panel of 60 human tumor cell lines, growth inhibition (CNS Cancer); settings: Homo sapiens; for GI50: SNB-75; for CC50: SNB-75, read-out: LC50; for IC (TGI): SNB-75, read-out: TGI
HCT-116 = assay: panel of 60 human tumor cell lines, growth inhibition (Colon Cancer); settings: Homo sapiens; for GI50: HCT-116, HCT-116, NCI five dose; for CC50: HCT-116, read-out: LC50; for IC (TGI): HCT-116, read-out: TGI
HCT-15 = assay: as above; settings: Homo sapiens; for GI50: HCT-15; for CC50: HCT-15, read-out: LC50; for IC (TGI): HCT-15, read-out: TGI
786-0 = assay: panel of 60 human tumor cell lines, growth inhibition (Renal Cancer); settings: Homo sapiens; for GI50: 786-0; for CC50: 786-0, read-out: LC50; for IC (TGI): 786-0, read-out: TGI
RXF 393 = assay: as above; settings: Homo sapiens; for GI50: RXF 393, RXF 393, NCI five dose; for CC50: RXF 393, read-out: LC50; for IC (TGI): RXF 393, read-out: TGI
UO-31 = assay: as above; settings: Homo sapiens; for GI50: UO-31; for CC50: UO-31, read-out: LC50; for IC (TGI): UO-31, read-out: TGI
MCF7 = assay: panel of 60 human tumor cell lines, growth inhibition (Breast Cancer); settings: Homo sapiens; for GI50: MCF7, MCF7, NCI five dose; for CC50: MCF7, read-out: LC50; for IC (TGI): MCF7, read-out: TGI
BT-549 = assay: as above; settings: Homo sapiens; for GI50: BT-549; for CC50: BT-549, read-out: LC50; for IC (TGI): BT-549, read-out: TGI
OVCAR-3 = assay: panel of 60 human tumor cell lines, growth inhibition (Ovarian Cancer); settings: for GI50 / CC50 / IC (TGI): Homo sapiens; for GI50 / Percent Growth: OVCAR-3; for CC50: OVCAR-3, read-out: LC50; for IC (TGI): OVCAR-3, read-out: TGI
SK-OV-3 = assay: as above; settings: Homo sapiens; for GI50: SK-OV-3; for CC50: SK-OV-3, read-out: LC50; for IC (TGI): SK-OV-3, read-out: TGI
DU-145 = assay: panel of 60 human tumor cell lines, growth inhibition (Prostate Cancer); settings: Homo sapiens; for GI50: DU-145; for CC50: DU-145, read-out: LC50; for IC (TGI): DU-145, read-out: TGI
NCI-H226 = assay: panel of 60 human tumor cell lines, growth inhibition (Non-Small Cell Lung Cancer); settings: Homo sapiens; for GI50: NCI-H226; for CC50: NCI-H226, read-out: LC50; for IC (TGI): NCI-H226, read-out: TGI
NCI-H322M = assay: as above; settings: Homo sapiens; for CC50: read-out: LC50; for IC (TGI): read-out: TGI

C=C1C(=O)O[C@H]2[C@H]1CC/C(COC(=O)OC)=C\CC[C@@]1(C)O[C@@H]21 [JVM 2-40]
Percent Growth (HL-60(TB); Log10 Concentration −4.0): −55% | Percent Growth (HL-60(TB); Log10 Concentration −5.0): −12% | Percent Growth (HL-60(TB); Log10 Concentration −6.0): 68% | Percent Growth (HL-60(TB); Log10 Concentration −7.0): 91% | Percent Growth (HL-60(TB); Log10 Concentration −8.0): 97% | GI50 (K-562): 4.12 µM | CC50 (K-562): > 100 µM | Percent Growth (K-562; Log10 Concentration −4.0): −31% | Percent Growth (K-562; Log10 Concentration −5.0): 21% | Percent Growth (K-562; Log10 Concentration −6.0): 97% | Percent Growth (K-562; Log10 Concentration −7.0): 99% | Percent Growth (K-562; Log10 Concentration −8.0): 101% | TGI (K-562): 2.53E−5 | GI50 (M14): 2.91 µM | CC50 (M14): 42.2 µM | IC (TGI) (M14): 14.1 µM | GI50 (SK-MEL-2): 10.6 µM | CC50 (SK-MEL-2): 59.5 µM | IC (TGI) (SK-MEL-2): 25.1 µM | GI50 (UACC-62): 5.93 µM | CC50 (UACC-62): 46.2 µM | IC (TGI) (UACC-62): 19.5 µM | GI50 (SNB-75): 2.69 µM | CC50 (SNB-75): 42.5 µM | IC (TGI) (SNB-75): 17.9 µM | GI50 (HCT-116): 2240 nM | CC50 (HCT-116): 33.2 µM | IC (TGI) (HCT-116): 11 µM | GI50 (HCT-15): 1960 nM | CC50 (HCT-15): 28.9 µM | IC (TGI) (HCT-15): 6.78 µM | GI50 (786-0): 3.29 µM | CC50 (786-0): 48.5 µM | IC (TGI) (786-0): 14.4 µM | GI50 (RXF 393): 1680 nM | CC50 (RXF 393): 31.7 µM | IC (TGI) (RXF 393): 6.85 µM | GI50 (UO-31): 3.21 µM | CC50 (UO-31): 42.1 µM | IC (TGI) (UO-31): 14.2 µM | GI50 (MCF7): 2280 nM | CC50 (MCF7): 49.8 µM | IC (TGI) (MCF7): 12.2 µM | GI50 (BT-549): 5.74 µM | CC50 (BT-549): 43.5 µM | IC (TGI) (BT-549): 18.7 µM | GI50 (OVCAR-3): 2630 nM | CC50 (OVCAR-3): 30.6 µM | IC (TGI) (OVCAR-3): 9.31 µM | Percent Growth (OVCAR-3; Log10 Concentration −4.0): −100% | Percent Growth (OVCAR-3; Log10 Concentration −5.0): −3% | Percent Growth (OVCAR-3; Log10 Concentration −6.0): 88% | Percent Growth (OVCAR-3; Log10 Concentration −7.0): 100% | Percent Growth (OVCAR-3; Log10 Concentration −8.0): 99% | GI50 (SK-OV-3): 22.7 µM | CC50 (SK-OV-3): > 100 µM | IC (TGI) (SK-OV-3): 59.7 µM | GI50 (DU-145): 3.35 µM | CC50 (DU-145): 37.7 µM | IC (TGI) (DU-145): 14 µM | GI50 (NCI-H226): 7.07 µM | CC50 (NCI-H226): 87.7 µM | IC (TGI) (NCI-H226): 27.4 µM | GI50 (NCI-H322M): 20.9 µM | CC50 (NCI-H322M): > 100 µM | IC (TGI) (NCI-H322M): 81.5 µM

C=C1C(=O)O[C@H]2[C@H]1CC/C(COC(=O)OCCN(C)C)=C\CC[C@@]1(C)O[C@@H]21 [JVM 2-35]
Percent Growth (HL-60(TB); Log10 Concentration −4.0): −52% | Percent Growth (HL-60(TB); Log10 Concentration −5.0): −17% | Percent Growth (HL-60(TB); Log10 Concentration −6.0): 72% | Percent Growth (HL-60(TB); Log10 Concentration −7.0): 83% | Percent Growth (HL-60(TB); Log10 Concentration −8.0): 94% | GI50 (K-562): 5.55 µM | CC50 (K-562): > 100 µM | Percent Growth (K-562; Log10 Concentration −4.0): −33% | Percent Growth (K-562; Log10 Concentration −5.0): 30% | Percent Growth (K-562; Log10 Concentration −6.0): 107% | Percent Growth (K-562; Log10 Concentration −7.0): 96% | Percent Growth (K-562; Log10 Concentration −8.0): 101% | TGI (K-562): 3.00E−5 | GI50 (M14): 3.71 µM | CC50 (M14): 45.6 µM | IC (TGI) (M14): 16.4 µM | GI50 (SK-MEL-2): 15.2 µM | CC50 (SK-MEL-2): 86.6 µM | IC (TGI) (SK-MEL-2): 36.3 µM | GI50 (UACC-62): 6.13 µM | CC50 (UACC-62): 46.6 µM | IC (TGI) (UACC-62): 19.9 µM | GI50 (SNB-75): 4.96 µM | CC50 (SNB-75): 50.7 µM | IC (TGI) (SNB-75): 21.5 µM | GI50 (HCT-116): 2660 nM | CC50 (HCT-116): 33.6 µM | IC (TGI) (HCT-116): 11.3 µM | GI50 (HCT-15): 2780 nM | CC50 (HCT-15): 44.3 µM | IC (TGI) (HCT-15): 12.8 µM | GI50 (786-0): 2.75 µM | CC50 (786-0): 37.3 µM | IC (TGI) (786-0): 12.1 µM | GI50 (RXF 393): 3230 nM | CC50 (RXF 393): 45.8 µM | IC (TGI) (RXF 393): 13.7 µM | GI50 (UO-31): 4.58 µM | CC50 (UO-31): 48.3 µM | IC (TGI) (UO-31): 18.6 µM | GI50 (MCF7): 2920 nM | CC50 (MCF7): 56.3 µM | IC (TGI) (MCF7): 13 µM | GI50 (BT-549): 5.82 µM | CC50 (BT-549): 44.8 µM | IC (TGI) (BT-549): 19.5 µM | GI50 (OVCAR-3): 3310 nM | CC50 (OVCAR-3): 35.3 µM | IC (TGI) (OVCAR-3): 11.5 µM | Percent Growth (OVCAR-3; Log10 Concentration −4.0): −96% | Percent Growth (OVCAR-3; Log10 Concentration −5.0): 6% | Percent Growth (OVCAR-3; Log10 Concentration −6.0): 97% | Percent Growth (OVCAR-3; Log10 Concentration −7.0): 106% | Percent Growth (OVCAR-3; Log10 Concentration −8.0): 98% | GI50 (SK-OV-3): 27.5 µM | CC50 (SK-OV-3): > 100 µM | IC (TGI) (SK-OV-3): 83.3 µM | GI50 (DU-145): 3.59 µM | CC50 (DU-145): 37.7 µM | IC (TGI) (DU-145): 13.2 µM | GI50 (NCI-H226): 11.9 µM | CC50 (NCI-H226): 89.9 µM | IC (TGI) (NCI-H226): 32.7 µM | GI50 (NCI-H322M): 28.7 µM | CC50 (NCI-H322M): > 100 µM | IC (TGI) (NCI-H322M): > 100 µM
